From patent US20090181968A1, “Novel 3-Bicyclocarbonylaminopyridine-2-Carboxamides or 3-Bicyclocarbonylaminopyrazine-2-Carboxamides” (priority 2005, published 2009)
Read-outs that look alike come from different tables or passages of the source.

Assays:
human CB1 receptor [1] = target: T1, human CB1 receptor (Homo sapiens, UniProt P21554); experiment: hCB1 GTPγS binding; type: biochemical; conditions: for Emax: read-out: Emax hCB1
T1 construct: purchased Perkin-Elmer
Description: Cloned human CB1 receptor from Perkin-Elmer (hCB1) are thawed at 37° C., passed 3 times through a 23-gauge blunt-end needle and diluted in the GTPγS binding buffer (50 mM Hepes, 20 mM NaOH, 100 mM NaCl, 1 mM EDTA, 5 mM MgCl2, pH 7.4, 0.1% BSA). […] The basal and maximal stimulated binding is determined in absence and presence of 10 μM Win 55,212-2. The membranes are pre-incubated for 5 minutes with 112.5 μM GDP prior to distribution in plates (30 μM GDP final). The plates are vortexed and incubated for 60 minutes at room temperature, filtered on Unifilters GF/B (pre-soaked in water) with the Packard harvester using 3 ml of wash buffer (50 mM Tris, 5 mM MgCl2, 50 mM NaCl, pH 7.0). The filters are dried for 1 hour at 55° C. The radioactivity (cpm) is counted in a TopCount (Packard) after adding 65 μl/well of MS-20 scintillation liquid.

human CB1 receptor [2] = target: T1, human CB1 receptor; experiment: hCB1 receptor binding (3H-CP55,940 displacement)
Description: hCB1 and hCB2 Receptor Binding
Membranes are produced from either HEK 293S cells expressing the cloned human CB1 receptor (hCB1: clone #24) or Sf9 cells, using the baculovirus system, expressing the cloned human CB2 receptor (hCB2). The membranes are thawed at 37° C., passed 3 times through a 23-gauge blunt-end needle, diluted in the cannabinoid binding buffer (50 mM Tris, 2.5 mM EDTA, 5 mM MgCl2, and 0.5 mg/mL BSA fatty acid free, pH 7.4) and aliquots containing the appropriate amount of protein are distributed in 96-well plates. The IC50 of the compounds of the present invention at hCB1 and hCB2 are evaluated from 10-point dose-response curves done with ^3H-CP55,940 at 20000 to 25000 dpm per well (0.17-0.21 nM) in a final volume of 300 μl. The total and non-specific binding are determined in the absence and presence of 0.2 μM of HU210 respectively. The plates are vortexed and incubated for 60 minutes at room temperature, filtered through Unifilters GF/B (pre-soaked in 0.1% polyethyleneimine) with the Packard harvester using 3 mL of wash buffer (50 mM Tris, 5 mM MgCl2, 0.5 mg BSA pH 7.0). The filters are dried for 1 hour at 55° C. The radioactivity (cpm) is counted in a TopCount (Packard) after adding 65 μl/well of MS-20 scintillation liquid.
Based on the above assays, the dissociation constant (Ki) for a particular compound of the present invention towards a particular receptor is determined using the following equation: […]
wherein IC50 is the concentration of the compound of the present invention at which 50% displacement has been observed; [rad] is a standard or reference radioactive ligand concentration at that moment; Kd is the dissociation constant of the radioactive ligand towards the particular receptor.

T1 sequence (P21554 whole entry): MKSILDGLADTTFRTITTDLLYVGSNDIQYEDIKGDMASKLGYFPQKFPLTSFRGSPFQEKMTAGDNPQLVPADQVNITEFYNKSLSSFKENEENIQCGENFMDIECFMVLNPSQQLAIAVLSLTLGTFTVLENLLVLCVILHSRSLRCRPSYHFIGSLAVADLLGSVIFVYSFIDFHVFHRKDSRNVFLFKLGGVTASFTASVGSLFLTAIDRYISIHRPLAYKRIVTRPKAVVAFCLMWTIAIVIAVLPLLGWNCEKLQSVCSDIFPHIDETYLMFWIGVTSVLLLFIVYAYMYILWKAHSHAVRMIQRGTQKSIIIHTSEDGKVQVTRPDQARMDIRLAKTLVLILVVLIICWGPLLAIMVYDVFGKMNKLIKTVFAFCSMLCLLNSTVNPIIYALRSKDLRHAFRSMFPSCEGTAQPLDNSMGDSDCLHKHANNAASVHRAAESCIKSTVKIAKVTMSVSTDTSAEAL

| SMILES | EC50 (human CB1 receptor [1]) [µM] | Emax (human CB1 receptor [1]) [%] | Ki (human CB1 receptor [2]) [µM] | EC50 (human CB1 receptor [1]; GTPγ35S binding, cloned human CB1 receptor membranes, read-out: EC50 hCB1) [µM] | Ki (human CB1 receptor [2]; membranes of HEK 293S cells expressing cloned human CB1 receptor, Ki=IC50/(1+[rad]/Kd), read-out: Ki hCB1) [µM] |
| --- | --- | --- | --- | --- | --- |
| CN(C)C(=O)COc1ccc(NC(=O)c2ccc(Cn3ccnn3)c3ccccc23)c(C(=O)NCC2CCC2)n1 [Example 6, N-(cyclobutylmethyl)-6-[2-(dimethylamino)-2-oxoethoxy]-3-{[4-(1H-1,2,3-triazol-1-ylmethyl)-1-naphthoyl]amino}pyridine-2-carboxamide] | 0.08 | 88 | 0.052 |  |  |
| O=C(COc1ccc(NC(=O)c2ccc(Cn3ccnn3)c3ccccc23)c(C(=O)NCC2CCC2)n1)NCCO [Example 7, N-(cyclobutylmethyl)-6-{2-[(2-hydroxyethyl)amino]-2-oxoethoxy}-3-{[4-(1H-1,2,3-triazol-1-ylmethyl)-1-naphthoyl]amino}pyridine-2-carboxamide] | 0.12 | 110 | 0.059 |  |  |
| O=C(NCC1CCC1)c1nc(OCc2ccccn2)ccc1NC(=O)c1ccc(Cn2ccnn2)c2ccccc12 [Example 14, N-(cyclobutylmethyl)-6-(pyridin-2-ylmethoxy)-3-{[4-(1H-1,2,3-triazol-1-ylmethyl)-1-naphthoyl]amino}pyridine-2-carboxamide] | 0.0073 | 110 | 0.0032 |  |  |
| COCc1cnnn1Cc1ccc(C(=O)Nc2cccnc2C(=O)NCC2CCC2)c2ccccc12 [Example 15, N-(cyclobutylmethyl)-3-[(4-{[5-(methoxymethyl)-1H-1,2,3-triazol-1-yl]methyl}-1-naphthoyl)amino]pyridine-2-carboxamide] | 0.022 | 120 | 0.013 |  |  |
| O=C(COc1ccc(NC(=O)c2ccc(Cn3ccnn3)c3ccccc23)c(C(=O)NCC2CCC2)n1)NCc1ccccc1 [Example 27, 6-(Benzylcarbamoyl-methoxy)-3-[(4-[1,2,3]triazol-1-ylmethyl-naphthalene-1-carbonyl)-amino]-pyridine-2-carboxylic Acid Cyclobutylmethyl-amide] | 0.042 | 94 | 0.035 |  |  |
| CC(C)OC(=O)COc1ccc(NC(=O)c2ccc(Cn3ccnn3)c3ccccc23)c(C(=O)NCC2CCC2)n1 [Example 29, {6-(Cyclobutylmethyl-carbamoyl)-5-[(4-[1,2,3]triazol-1-ylmethyl-naphthalene-1-carbonyl)-amino]-pyridin-2-yloxy}-acetic Acid Isopropyl Ester] | 0.0071 | 80 | 0.0054 |  |  |
| COCc1ccc(C(=O)Nc2ccc(OCCO)nc2C(=O)NCC2CCOCC2)c2ccccc12 [Example 35, 6-(2-Hydroxy-ethoxy)-3-[(4-methoxymethyl-naphthalene-1-carbonyl)-amino]-pyridine-2-carboxylic Acid (tetrahydro-pyran-4-ylmethyl)-amide] | 0.099 | 93 | 0.053 |  |  |
| O=C(NCC1CCOCC1)c1nc(OS(=O)(=O)CCC(F)(F)F)cnc1NC(=O)c1ccc(Cn2ccnn2)c2ccccc12 [Example 44, 6-[(Tetrahydro-2H-pyran-4-ylmethyl)carbamoyl]-5-{[4-(1H-1,2,3-triazol-1-ylmethyl)-1-naphthoyl]amino}pyrazin-2-yl 3,3,3-trifluoropropane-1-sulfonate] | 0.24 | 140 | 0.27 |  |  |
| O=C(NCC1CCC1)c1ncccc1NC(=O)c1ccc(Cn2cc(F)nn2)c2ccccc12 [Example 50, N-(Cyclobutylmethyl)-3-({4-[(4-fluoro-1H-1,2,3-triazol-1-yl)methyl]-1-naphthoyl}amino)pyridine-2-carboxamide] | 0.046 | 48 | 0.051 |  |  |
| O=C(NCC1CCOCC1)c1ncccc1NC(=O)c1csc2ccccc12 [Example 56, 3-[(1-benzothien-3-yl-carbonyl)amino]-N-(tetrahydro-2H-pyran-4-ylmethyl)pyridine-2-carboxamide] |  | 88 |  | 0.38 | 0.26 |
